SMILES strings stand for the structures.

The subject of experiment [1] is ovalbumin-induced asthma model in mice. Briefly: Ovalbumin-induced asthma model in mice. The experiment is classed as in vivo, Balb/c mice. As to conditions: nasal administration BID 5 days: MDI-1228 3 mg/kg, MDI-1288 3 mg/kg, MDI-1233 1, 3, 10 mg/kg; for Bronchoalveolar lavage fluid IL-5 expression level / Inflammatory cell count in bronchoalveolar lavage fluid / Lung tissue inflammatory cell infiltration (HE pathology) / Serum IgE expression level: vs. vehicle (model) group, dexamethasone 1 mg/kg gavage QD. The method, then:
After 7 days of acclimatization, animals were randomly grouped based on their body weight. The experiment was divided into 8 groups, with 8 mice in each group, as detailed in the table below.
• Preparation of Immunogen: Weigh an appropriate amount of OVA, to which an appropriate amount of PBS was added, to achieve a final concentration of 0.1 mg/ml. Then, an equal volume of aluminum adjuvant was added, and the resulting mixture was mixed well, and stored at 4° C., which was prepared before use. • Preparation of Sensitizer (5% OVA): Weigh an appropriate amount of OVA, to which an appropriate amount of PBS was added, to achieve a final concentration of 5%. The resulting mixture was mixed well, and store it at 4° C. for later use, which was prepared before use. • Preparation of Vehicle: Add 200 μl of Tween 80 to 100 ml of saline, and mix it well. […] Mix it well, and store it at 4° C. for later use. […] Mix it well, and store it at 4° C. for later use. […] Mix it well, and store it at 4° C. for later use. The solution was prepared once every three days.
• Immunization: On days 0, 7, 14, and 21, 200 μl of PBS was injected intraperitoneally for the first group, and 200 μl of (10 μg) OVA/aluminum adjuvant emulsion was injected intraperitoneally for groups 2-8. • Sensitization: From days 28 to 32, the first group of animals was exposed to nebulized PBS in a nebulization box for 20 minutes, and the groups 2-8 were exposed to nebulized 5% OVA in a nebulization box for 20 minutes. And then, they were removed. The sensitization was conducted at 12:30 PM daily. • Administration: The medicine was administrated twice a day at 9 AM and 5 PM via nasal drops. Dexamethasone (Dex) was administered by gavage once a day at 9 AM.
Serum IgE: Blood was collected from the orbits of animals after carbon dioxide euthanasia, and plasma was separated and stored at −40 degrees for plasma IgE detection.
Bronchoalveolar Lavage Fluid (BALF) Cell Count: An appropriate amount of foetal bovine serum was weighted and dissolved in PBS to a final concentration of 1%. After orbital blood collection, the trachea was exposed, and a 1 ml syringe needle was replaced with a mouse gavage needle. 0.8 ml of the lavage fluid was aspirated from the syringe and the lungs were lavaged three times. The lavage fluids were collected, and centrifuged at 1000 rpm for 10 minutes, and the supernatant was collected and stored at −40 degrees Celsius. Cells were resuspended with 1 ml of PBS and counted. 100 ul of centrifuged smear was taken and stained with Diff quick and the number of eosinophils, basophils, lymphocytes and macrophages were recorded.
Bronchoalveolar Lavage Fluid IL-5: Bronchoalveolar lavage fluid was collected to detect IL-5.
Pathological scoring criteria were: • A) 0 points: No lymphocyte infiltration; • B) 1 point: Trace lymphocyte infiltration; • C) 2 points: Mild lymphocyte infiltration; • D) 3 points: Moderate lymphocyte infiltration; • E) 4 points: Severe lymphocyte infiltration; • After scoring, the results were calculated and analyzed.

Experiment [2] concerns acne model in rabbits. The experiment in a line: Acne model in rabbits (coal tar + Propionibacterium acnes). As to conditions: for Rabbit ear weight: twice per day, topical, 2 weeks; for Serum DHT level / Serum IL-1α level: vs. model (vehicle) group; for Effect on inflammatory factors and acne (conclusion): rabbit, in vivo. It is filed as in vivo, New Zealand white rabbits. The method, then:
Modeling: Rabbits were acclimated for 7 days. On the right inner ear canal exit of the rabbits, a 2 cm×2 cm area was treated with 2% coal tar solution once a day, 0.5-1 mL each time, for 26 consecutive days. […] On the 8th day, Propionibacterium acnes was injected intradermally at 3-4 sites on the rabbit ears, 50 μl per rabbit, injected every other day for a total of 5 times. Treatment was started randomly on the 9th day after the last injection.
Rabbits were treated according to their groups. The blank group received no treatment. […] The model group received an equal amount of vehicle treatment, with the same application method and duration as the test drug groups.
Twenty-four hours after the last administration, a 2.8 cm punch was used to prepare ear samples at the application site, and their weight was measured. The ears from the modeling site were fixed with 4% paraformaldehyde, and consecutive sections (3 slices) were taken from the same location for HE staining and histopathological analysis. At the same time, the area of 3 hair follicles and the diameter of 3 sebaceous glands were measured to calculate the average values. Blood was drawn from the heart and centrifuged to obtain serum, and the levels of interleukin-1α (IL-1α), interleukin-6 (IL-6), and dihydrotestosterone (DHT) in serum were determined according to the ELISA kit instructions.
Tissue samples from animal ears were excised, fixed in 4% paraformaldehyde, dehydrated, embedded in paraffin, and sectioned and HE stained for observation of histopathological morphology changes. The tissue samples were fixed in 4% paraformaldehyde at normal temperature and the taken ears tissue was rinsed with running water for several hours, dehydrated through a series of ethanol solutions (70%, 80%, 90%), and then treated with a mixture of pure alcohol and xylene for 15 minutes, followed by xylene I for 15 minutes and xylene II for 15 minutes (until transparent). The tissue was then placed in a mixture of xylene and paraffin at a volume ratio of 1:1 for 15 minutes, followed by immersion with paraffin I and paraffin II each for 50-60 minutes. The tissue was embedded in paraffin and sectioned, and the sections were baked, dewaxed and hydrated in distilled water. The resulting sections were then stained in hematoxylin solution for 3 minutes, differentiated in a hydrochloric acid alcohol solution for 15 seconds, slightly washed, blued in a return blue solution for 15 seconds, rinsed with running water, stained with eosin for 3 minutes, rinsed with running water, dehydrated, cleared, and mounted for microscopic examination.
A double-antibody one-step sandwich Enzyme-linked Immunosorbent Assay (ELISA) ket was used. A capture antibody for the mouse target indicators was pre-coated onto microplate wells, to which samples, standards, and HRP-labeled detection antibodies were added sequentially, followed by incubation and thorough washing. TMB substrate was added for color development, which turned into blue in the presence of peroxidase and then into yellow after acidification. The depth of color was positively correlated with the concentration of the target in the samples. The absorbance (OD450 value) was measured at a wavelength of 450 nm using the microplate reader, and the sample concentration was calculated.

For experiment [3], the target named is TRKA (Homo sapiens (Human), UniProt P04629). Briefly: Inhibitory activity on TRKA (ADP-Glo Kinase Assay).
For experiment [4], the target named is TRKB (Homo sapiens (Human), UniProt Q16620). The experiment in a line: Inhibitory activity on TRKB (ADP-Glo Kinase Assay).
For experiment [5], the target named is TRKC (Homo sapiens (Human), UniProt Q16288). The experiment in a line: Inhibitory activity on TRKC (ADP-Glo Kinase Assay).
Sequence of TRKC (Q16288 32-839): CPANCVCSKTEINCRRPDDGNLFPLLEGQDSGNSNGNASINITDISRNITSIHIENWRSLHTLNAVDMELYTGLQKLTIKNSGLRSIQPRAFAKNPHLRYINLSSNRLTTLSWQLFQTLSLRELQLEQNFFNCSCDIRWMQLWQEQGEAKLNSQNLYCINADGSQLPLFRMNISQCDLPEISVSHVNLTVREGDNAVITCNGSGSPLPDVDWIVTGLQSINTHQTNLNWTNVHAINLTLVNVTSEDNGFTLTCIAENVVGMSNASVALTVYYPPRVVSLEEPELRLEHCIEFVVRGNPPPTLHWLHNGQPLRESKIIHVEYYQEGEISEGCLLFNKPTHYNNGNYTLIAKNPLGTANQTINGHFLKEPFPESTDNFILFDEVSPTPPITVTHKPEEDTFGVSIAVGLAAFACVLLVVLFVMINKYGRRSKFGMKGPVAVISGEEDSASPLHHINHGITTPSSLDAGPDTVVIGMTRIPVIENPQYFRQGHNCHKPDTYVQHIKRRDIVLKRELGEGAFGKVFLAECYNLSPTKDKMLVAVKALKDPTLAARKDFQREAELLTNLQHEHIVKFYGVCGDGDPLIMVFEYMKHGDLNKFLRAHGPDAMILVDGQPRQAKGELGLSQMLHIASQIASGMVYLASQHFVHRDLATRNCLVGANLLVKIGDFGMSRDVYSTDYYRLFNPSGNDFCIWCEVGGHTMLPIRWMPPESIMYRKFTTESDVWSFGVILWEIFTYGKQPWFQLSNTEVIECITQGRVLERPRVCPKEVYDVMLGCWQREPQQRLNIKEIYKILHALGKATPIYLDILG

Sequence of TRKA (P04629 33-796 limits assumed): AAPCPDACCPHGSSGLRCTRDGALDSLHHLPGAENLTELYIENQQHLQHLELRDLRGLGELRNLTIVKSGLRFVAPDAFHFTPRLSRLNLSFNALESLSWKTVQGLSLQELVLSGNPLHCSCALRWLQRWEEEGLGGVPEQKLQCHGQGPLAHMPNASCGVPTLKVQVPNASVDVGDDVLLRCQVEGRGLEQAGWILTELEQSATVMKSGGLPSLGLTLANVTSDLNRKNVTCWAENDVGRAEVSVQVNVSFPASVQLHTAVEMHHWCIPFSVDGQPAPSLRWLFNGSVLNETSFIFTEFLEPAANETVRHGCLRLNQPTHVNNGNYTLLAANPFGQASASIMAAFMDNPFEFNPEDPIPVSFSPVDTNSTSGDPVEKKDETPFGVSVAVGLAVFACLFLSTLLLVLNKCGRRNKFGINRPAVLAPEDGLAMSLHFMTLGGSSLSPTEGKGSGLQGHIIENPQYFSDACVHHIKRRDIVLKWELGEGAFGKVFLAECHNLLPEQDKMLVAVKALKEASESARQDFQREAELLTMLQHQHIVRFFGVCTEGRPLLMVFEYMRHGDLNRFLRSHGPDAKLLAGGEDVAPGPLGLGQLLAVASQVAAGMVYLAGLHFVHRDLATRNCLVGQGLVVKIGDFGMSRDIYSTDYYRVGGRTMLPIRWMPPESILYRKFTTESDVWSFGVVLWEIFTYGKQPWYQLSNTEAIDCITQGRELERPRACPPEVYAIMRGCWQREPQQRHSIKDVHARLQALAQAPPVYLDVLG
Sequence of TRKB (Q16620 32-822): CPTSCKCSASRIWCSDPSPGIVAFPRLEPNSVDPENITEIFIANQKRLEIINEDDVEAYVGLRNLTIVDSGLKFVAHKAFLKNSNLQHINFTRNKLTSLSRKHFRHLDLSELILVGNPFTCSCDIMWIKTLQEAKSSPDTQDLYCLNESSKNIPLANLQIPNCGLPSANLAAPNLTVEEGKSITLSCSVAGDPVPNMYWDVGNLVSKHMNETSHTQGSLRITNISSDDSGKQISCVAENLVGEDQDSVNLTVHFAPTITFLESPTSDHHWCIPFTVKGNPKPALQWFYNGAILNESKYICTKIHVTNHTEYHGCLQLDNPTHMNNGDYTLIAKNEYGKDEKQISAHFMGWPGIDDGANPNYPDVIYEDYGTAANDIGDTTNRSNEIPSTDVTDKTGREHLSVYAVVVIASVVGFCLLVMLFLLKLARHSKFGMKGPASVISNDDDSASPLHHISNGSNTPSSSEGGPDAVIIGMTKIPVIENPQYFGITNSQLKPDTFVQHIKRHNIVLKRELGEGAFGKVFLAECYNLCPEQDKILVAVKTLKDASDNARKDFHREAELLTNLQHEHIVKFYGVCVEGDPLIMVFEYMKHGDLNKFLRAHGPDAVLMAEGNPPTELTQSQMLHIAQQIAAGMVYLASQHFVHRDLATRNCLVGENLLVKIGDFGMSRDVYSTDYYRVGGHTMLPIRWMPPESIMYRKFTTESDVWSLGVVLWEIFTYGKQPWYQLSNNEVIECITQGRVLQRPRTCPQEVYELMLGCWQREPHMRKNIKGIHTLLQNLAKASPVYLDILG

For the molecule `CCc1cc(O)c(F)cc1-c1ccc2c(-c3nc4c([nH]3)CN(C(=O)N3CC[C@H](O)C3)C4)n[nH]c2c1` [MDI-1228, (S)-(2-(6-(2-ethyl-5-fluoro-4-hydroxyphenyl)-1H-indazol-3-yl)-4,6-dihydropyrrolo[3,4-d]imidazol-5-(1H)-yl)(3-hydroxylpyrrolidin-1-yl)ketone], in experiment [1], the “Therapeutic effect on the asthma animal model (lung tissue pathological scoring)” value is “certain therapeutic effect”, the “Bronchoalveolar lavage fluid IL-5 expression level” value was “significantly reduced the expression of IL-5”, the “Inflammatory cell count in bronchoalveolar lavage fluid” value is “significantly reduced the Inflammatory Cell Count” and the “Lung tissue inflammatory cell infiltration (HE pathology)” value was “significantly reduced the lung tissue inflammatory cell infiltration”. In addition, the “Serum IgE expression level” value in experiment [1] was “significantly reduced the expression of IgE”. In experiment [2] (1 mg/kg low-dose), the “Serum IL-1α, IL-6 and DHT levels” value is “a trend of reduction in all three indicators”. Further, in experiment [2] (3 mg/kg), the Hair follicle area entry is “significantly reduced the enlargement of hair follicles”, the “Serum DHT level” value is given as “significantly reduced” and the “Serum IL-1α level” value is recorded as “significantly reduced”. Besides, the Rabbit ear weight result in experiment [2] (3 mg/kg each time) was “reduced ear weight”. Also, in experiment [2] (3 mg/kg medium-dose), the “Ear tissue HE staining” value was “the best treatment effect”. In experiment [2] (9 mg/kg), the Hair follicle area entry is given as “significantly reduced the enlargement of hair follicles”, the “Serum DHT level” value is listed as “significantly reduced” and the “Serum IL-1α level” value is reported as “significantly reduced”. The Rabbit ear weight entry in experiment [2] (9 mg/kg each time) was “reduced ear weight”. For the same molecule, the “Effect on inflammatory factors and acne (conclusion)” value in experiment [2] was “reducing the expression of inflammatory factors and improving acne”. In experiment [3], this molecule had a half-maximal inhibitory concentration (IC50) of 1.82 nM. The molecule also showed an IC50 in experiment [4] of 1.77 nM. For the same molecule, the concentration for half-maximal inhibition (IC50) in experiment [5] stood at 0.6 nM.

On to `CCc1cc(O)c(F)cc1-c1ccc2c(-c3nc4c([nH]3)CN(C(=O)NCC(O)CCl)C4)n[nH]c2c1` (stereo not shown) [MDI-1288], for which, in experiment [1], the “Therapeutic effect on the asthma animal model (lung tissue pathological scoring)” value is “certain therapeutic effect”, the “Bronchoalveolar lavage fluid IL-5 expression level” value is given as “significantly reduced the expression of IL-5”, the “Inflammatory cell count in bronchoalveolar lavage fluid” value is on record as “significantly reduced the Inflammatory Cell Count” and the “Lung tissue inflammatory cell infiltration (HE pathology)” value was “significantly reduced the lung tissue inflammatory cell infiltration”. Besides, the “Serum IgE expression level” value in experiment [1] is reported as “significantly reduced the expression of IgE”. For the same molecule, in experiment [2] (3 mg/kg each time), the Rabbit ear weight result is given as “reduced ear weight”. For the same molecule, in experiment [2] (3 mg/kg), the “Serum DHT level” value is reported as “significantly reduced” and the “Serum IL-1α level” value was “significantly reduced”. In addition, the “Effect on inflammatory factors and acne (conclusion)” value in experiment [2] is “reducing the expression of inflammatory factors and improving acne”. Further, in experiment [3], inhibition was half-maximal at 0.89 nM (IC50). The molecule also yielded an IC50 in experiment [4] of 1.04 nM. The molecule also yielded an IC50 in experiment [5] of 0.59 nM.

The values above are taken from US20250387388A1, “COMPOUND AS TRK INHIBITOR AND/OR RET INHIBITOR AND USE THEREOF” (Medinno Pharmaceutical Technology (Zhuhai) Co., Ltd., priority 2022, published 2025).
